Measurements reported in publication PMC12365674, “Diverse metabolites with anti-psoriasis potential from different fermentations of the fungicolous fungus Xylarialongipes HFG1018” (IMA Fungus, 2025).
“Also recorded” adds a separate entry of the source.

How the values were obtained:
HaCaT cells [1] = assay: Antiproliferative activity against HaCaT cells (CCK-8); assay type: cell-based; conditions: Homo sapiens, HaCaT, read-out: IC50 against the proliferation of HaCaT cells
Description: (§1) As previously described, the immunosuppressive activity, lymphocyte viability, and antiproliferative activity against HaCaT cells were evaluated using the CCK-8 method ([Zhao et al. 2023], [2024]).
(§2) In the immunosuppressive and lymphocyte viability, the primary tested concentration of all compounds was 20.0 μM, and dexamethasone (Dex) (c = 2.0 μM) was used as a positive control. In the antiproliferative activity against HaCaT cells, the primary tested concentration of all compounds was 40 μM, and the positive control was methotrexate (MTX) (c = 40.0 μM). When the inhibition rates are greater than 50%, the IC50 values of active compounds will be further tested and calculated. All experiments were performed in triplicate.

[2] = tested on: LPS-induced B lymphocytes; assay: Anti-proliferative activity against LPS-induced B lymphocytes (CCK-8); assay type: cell-based, mouse; conditions: Mus musculus, Lymphocyte; for IC50: induced proliferation of B lymphocytes (LPS), CCK-8, read-out: B cells IC50; for inhibition at 20 µM: c = 20 μM
Description: as §1, §2

lymphocytes [3] = assay: Lymphocyte viability (CCK-8); assay type: cell-based, mouse
Description: as §1, §2

[4] = Lymphocyte viability (CCK-8); assay type: cell-based, mouse; conditions: mouse, lymphocytes; lymphocyte viability; CCK-8
Description: as §1, §2

[5] = tested on: ConA-induced T lymphocytes; assay: Anti-proliferative activity against ConA-induced T lymphocytes (CCK-8); assay type: cell-based; conditions: Mus musculus, T-lymphocyte; for IC50: induced proliferation of T lymphocytes (ConA), CCK-8, read-out: T cells IC50; for inhibition at 20 µM: c = 20 μM
Description: as §1, §2

[6] = tested on: ConA-induced T lymphocytes; assay: as above; assay type: cell-based; conditions: Mus musculus, T-lymphocyte, c = 40 μM, read-out: Inhibition rate (%) T
[7] = tested on: LPS-induced B lymphocytes; assay: Anti-proliferative activity against LPS-induced B lymphocytes (CCK-8); assay type: cell-based; conditions: Mus musculus, Lymphocyte, c = 40 μM, read-out: Inhibition rate (%) B
lymphocytes [8] = assay: Lymphocyte viability (CCK-8); assay type: cell-based, mouse; conditions: c = 40 μM
[9] = tested on: induced T cells (Con A 5 μg/mL); assay: EdU proliferation assay, induced T cells; assay type: cell-based, mouse; conditions: c = 20 μM; relative to the model group
Description: (§3) EdU fluorescence labeling for cell proliferation of induced T/B lymphocytes (2 × 10^5 cells/well) and HaCaT cells (1 × 10^4 cells/well) of active compounds 10, 19, 23, 32, 38, and 41 (final concentration 10 or 20 μM) was performed as previously reported ([Biram and Shulman 2020]; [Zhao et al. 2024]). EdU (HF488) (the Click-iT™ EdU Flow Cytometry Assay Kit, APExBIO, USA) was added 24 h (final concentration 50 μM, T and B cells) and 4 h (final concentration 10 μM, HaCaT cells) before harvesting the cells. All procedures were performed according to the manufacturer’s instructions for the click reaction. EdU-positive cells and proliferating phase cells were analyzed with a fluorescence microscope.

IFN-γ = assay: Cytokine analysis by ELISA of induced T cells: IFN-γ; assay type: cell-based, mouse; conditions: ConA-induced T cells, 48 h; all sample groups; P < 0.0001 vs. model
Description: (§4) The mononuclear cell suspensions (2 × 10^5 cells/well) were cultured with ConA (5 μg/mL) in 96-well plates, and indicated concentrations of compounds 2, 15, and 32 were added simultaneously. After a 48-hour culture period, cytokines in the supernatants were quantified using mouse IFN-γ, IL-2, and IL-17A ELISA kits (Mabtech, Sweden), following the manufacturer’s protocol ([Jing et al. 2021]; [Zhao et al. 2024]).

[10] = tested on: induced B cells (LPS 15 μg/mL); assay: EdU proliferation assay, induced B cells; assay type: cell-based, mouse; conditions: c = 20 μM; relative to the model group
Description: as §3

IL-17A = assay: Cytokine analysis by ELISA of induced T cells: IL-17A; assay type: cell-based, mouse; conditions: 40 μM; ConA-induced T cells, 48 h; P < 0.05 vs. model
Description: as §4

[11] = tested on: NF-κB p65 phosphorylation; assay: Immunofluorescence of p-p65/p65 in HaCaT cells; assay type: cell-based; conditions: 31.0 μM, 36 h, P < 0.0001 vs. Con
Description: The immunofluorescence protocol was performed using the reported method ([Zhao et al. 2024]). HaCaT cells (2.0 × 10^5 cells/well) were plated onto 6-well plates with glass coverslips and adhered overnight (12 h) before compound addition. After treatment with active compounds 10 (final concentration 31 μM) and 32 (final concentration 27 μM) for 36 h, the supernatant was removed, and the cells were washed twice with PBS, fixed with 4% paraformaldehyde for 15 min, and then washed with PBS three times. After blocking, incubated with NF-κB p65 (p65)/phosphorylated NF-κB p65 (p-p65) antibodies and secondary antibodies (Servicebio, China). Then, cells were counterstained with 4,6-[…]-2-phenylindole (DAPI) for 5 min. After the PBS washing, fluorescent seal liquid was added, and the plate was monitored under an imaging system (Pannoramic MIDI, 3Dhistech, Hungary). The nucleus is blue, and positive cells are green (p-p65) or red (p65). The immunofluorescence areas for each indicator were analyzed in ImageJ.

HaCaT cells [12] = assay: EdU proliferation assay, HaCaT cells; assay type: cell-based; conditions: c = 20 μM; compared to the control group
Description: as §3

[13] = LPS-induced B lymphocytes, read-out: Inhibition rate (%) B
[14] = ConA-induced T lymphocytes, read-out: Inhibition rate (%) T

Question: For `CCCCCC=C(C(=O)O)C(C)C(=O)O` (stereo not shown) [Compound 40, 2-hexylidene-3-methylsuccinic acid], which IC50 (HaCaT cells [1]) is on record?
Answer: 32.9 ± 3.4 µM

Question: Which results are given for `C[C@@H]1C[C@H]2[C@@H]3CCC4=CC(=O)C=C[C@]4(C)[C@@]3(F)[C@@H](O)C[C@]2(C)[C@@]1(O)C(=O)CO` [Dex, dexamethasone, reference compound]?
Answer: inhibition at 2 µM ([2]; c = 2 μM, LPS-induced B lymphocytes, read-out: Inhibition rate (%) B): 68.6 ± 1.5%; IC50 [2]: 1 ± 0.05 µM; Cell validity (%) (lymphocytes [3]; c = 2 μM): 36.9 ± 2.2%; CC50 [4]: 0.2 ± 0.04 µM; inhibition at 2 µM ([5]; c = 2 μM, ConA-induced T lymphocytes, read-out: Inhibition rate (%) T): 45.2 ± 4.9%; IC50 [5]: 1.9 ± 0.1 µM

Question: With `COC(=O)c1c[nH]c2ccccc12` [Compound 28, 1H-indole-3-carboxylic acid methyl ester] as the compound, how does the IC50 (HaCaT cells [1]) read?
Answer: 29.1 ± 1.7 µM

Question: Which inhibition at 40 µM [6] does the source give for `CC12CCOC(C1)C1=C(CCC3C(C)(C(=O)O)CCCC13C)C2` (stereo not drawn) [Compound 1, 11α,16-Epoxy-isopimar-8(9)-en-19β-oic acid] here?
Answer: 16.5 ± 1.5%

Question: And the inhibition at 20 µM [2, 13]?
Answer: 18.9 ± 7.5%

Question: What about the inhibition at 40 µM [7] of the same compound?
Answer: 20.4 ± 6.3%

Question: And the “Cell validity (%)” value (lymphocytes [8])?
Answer: 90.7 ± 4.0%

Question: What about the “Cell validity (%)” value (lymphocytes [3]; c = 20 μM) of the same compound?
Answer: 86.3 ± 2.1%

Question: And the inhibition at 20 µM [5, 14]?
Answer: 11.4 ± 6.4%

Question: For `CC(C)[C@@H](C)/C=C/[C@@H](C)[C@H]1CC[C@H]2C3=CC(=O)[C@@]4(O)C[C@@H](O)CC[C@]4(C)[C@@]3(O)CC[C@]12C` [Compound 34, 3β,5α,9α-trihydroxy-(22E,24R)-ergosta-7,22-dien-6-one], which IC50 (HaCaT cells [1]) is on record?
Answer: 32.2 ± 3.4 µM

Question: What does the source list for `C[C@]1(CCO[C@H]2O[C@H](CO)[C@@H](O)[C@H](O)[C@H]2O)CCC2=C(CC[C@H]3[C@@](C)(C(=O)O)CCC[C@]23C)C1` [Compound 3, 16-α-D-Glucopyranosyloxyisopimar-8(9)-en-19-oic acid]?
Answer: inhibition at 40 µM [6]: 26.5 ± 3.3%; inhibition at 20 µM [2, 13]: 11 ± 4.9%; inhibition at 40 µM [7]: 22.6 ± 9.6%; Cell validity (%) (lymphocytes [8]): 89.9 ± 4.4%; Cell validity (%) (lymphocytes [3]; c = 20 μM): 87.7 ± 7.4%; inhibition at 20 µM [5, 14]: 15.7 ± 7.9%

Question: Which results are given for `C[C@]1(CCO[C@H]2O[C@H](CO)[C@@H](O)[C@H](O)[C@@H]2O)CCC2=C(CC[C@H]3[C@@](C)(C(=O)O)CCC[C@]23C)C1` [Compound 2, 16-α-D-Mannopyranosyloxyisopimar-8(9)-en-19-oic acid]?
Answer: inhibition at 40 µM [6]: 32.8 ± 6.8%; inhibition at 20 µM [2, 13]: 24.9 ± 8.6%; inhibition at 40 µM [7]: 30.6 ± 6.2%; proliferation of induced T cells measured by EdU [9]: significantly suppressed the proliferation; Cell validity (%) (lymphocytes [8]): 89.8 ± 7.9%; Cell validity (%) (lymphocytes [3]; c = 20 μM): 100.0 ± 2.4%; inhibition at 20 µM [5, 14]: 23.8 ± 0.9%; IFN-γ secretion (IFN-γ): significant reduction; also recorded: significantly reduced; proliferation of induced B cells measured by EdU [10]: significantly suppressed the proliferation; IL-17A levels (IL-17A): markedly lowered

Question: For `CCc1ccc2occ(COC)c(=O)c2c1` [Compound 11, 6-ethyl-3-(methoxymethyl)-4H-chromen-4-one], which IC50 [2] is on record?
Answer: 20 ± 1.5 µM

Question: What about the CC50 [4] of the same compound?
Answer: > 20 µM

Question: And the IC50 [5]?
Answer: > 20 µM

Question: With `CCC1CCc2occc(=O)c2C1O` (stereo not shown) [Compound 9, 6-ethyl-5-hydroxy-5,6,7,8-tetrahydro-4H-chromen-4-one] as the compound, how does the IC50 (HaCaT cells [1]) read?
Answer: 35 ± 3.1 µM

Question: Which IC50 (HaCaT cells [1]) does the source give for `CC(C)[C@@H](C)CC[C@@H](C)[C@H]1CC[C@H]2C3=C[C@@H](O)[C@@]4(O)C[C@@H](O)CC[C@]4(C)[C@H]3CC[C@]12C` [Compound 33, (24S)-ergosta-7-ene-3β,5α,6β-triol] here?
Answer: 33.9 ± 2.8 µM

Question: Which IC50 [2] does the source give for `CCC1=Cc2c(occ(COC)c2=O)CC1` [Compound 10, 6-ethyl-3-(methoxymethyl)-7,8-dihydro-4H-chromen-4-one] here?
Answer: 8 ± 0.7 µM

Question: What about the CC50 [4] of the same compound?
Answer: > 20 µM

Question: And the IC50 [5]?
Answer: > 20 µM

Question: And the IC50 (HaCaT cells [1])?
Answer: 30.9 ± 2.7 µM

Question: What about the “NF-κB activation (ratio p-p65/p65)” value [11] of the same compound?
Answer: significantly attenuated NF-κB activation

Question: What about the “proliferation rates of HaCaT cells measured by EdU” value (HaCaT cells [12]) of the same compound?
Answer: significantly reduced

Question: For `C[C@@H]1Cc2c(C(=O)O)ccc(O)c2C(=O)O1` [Compound 30, (R)-5-carboxymellein], which IC50 (HaCaT cells [1]) is on record?
Answer: 31.2 ± 4.1 µM
